Reference: patent publication US6358885B1, “Substituted phenylheterocyclic herbicides” (Mississippi State University, priority 1992, dated 2002)

Legend:
soybean = assay: Test B preemergence/postemergence greenhouse plant response rating 0 to 10; format: in vivo, Glycine max; conditions: 0 to 10 scale
How it was run: (§1)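 Test chemicals were sprayed onto freshly planted seed and, concurrently, onto young plants between the one and four leaf stage. After a twelve- to sixteen-day greenhouse period, each species was visually compared with untreated controls.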

chickweed = assay: as above; format: in vivo, Stellaria media; conditions: 0 to 10 scale
How it was run: as §1

bermudagrass = assay: Test G preemergence/postemergence greenhouse plant response rating 0 to 100; format: in vivo, Cynodon dactylon; conditions: 0 to 100 scale
From the text: (§2) Seeds, rhizomes, or plant parts of alfalfa (Medicago ativa), annual bluegrass (Poa annua), bermudagrass (Cynodon dactylon), broadleaf signalgrass (Brachiaria plantaginea), common purslane (Portulaca oleracea), common ragweed (Ambrosia elatior), […] (Paspalum dilatatum), goosegrass (Eleusine indica), guineagrass (Panicum maximum), […] exaltata), johnsongrass (Sorghum halepense), large crabgrass (Digitaria sanguinalis), peanut (Arachis hypoagaea), pitted morningglory (Ipomoea lacunosa), purple nutsedge (Cyperus rotundus), sandbur (Cenchrus echinatus), smooth crabgrass (Digitaria ischaemum) and yellow nutsedge (Cyperus esculentus) were planted into greenhouse pots containing greenhouse planting medium. Each pot contained only one plant species. The test compound was dissolved in a non-phytotoxic solvent and applied preemergence and/or postemergence to the plants. Preemergence applications were made within one day of planting the seeds or plant parts. Postemergence applications were applied when the plants were in the two to four leaf stage (three to twenty cm). Test chemicals were dissolved in a non-phytotoxic solvent and applied preemergence and postemergence to the plants. Untreated control plants and treated plants were placed in the greenhouse and visually evaluated for injury at 13 to 21 days after herbicide application. […] A dash (-) response indicates no test result.

large crabgrass = assay: as above; format: in vivo, Digitaria sanguinalis; conditions: 0 to 100 scale
From the text: as §2

corn [1] = assay: Test B preemergence/postemergence greenhouse plant response rating 0 to 10; format: in vivo, Zea mays; conditions: for Plant response rating, Corn: 0 to 10 scale
How it was run: as §1

morningglory [2] = assay: as above; format: in vivo, Ipomoea hederacea; conditions: 0 to 10 scale
How it was run: as §1

velvetleaf [3] = assay: as above; format: in vivo, Abutilon theophrasti; conditions: 0 to 10 scale
How it was run: as §1

sugar beet = assay: as above; format: in vivo, Beta vulgaris; conditions: 0 to 10 scale
How it was run: as §1

wheat = assay: Test C preemergence/postemergence greenhouse plant response rating 0 to 100; format: in vivo, Triticum aestivum; conditions: POSTEMERGENCE; for Plant response rating, Wheat: 0 to 100 scale
How it was run: (§3)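 Compounds in non-phytotoxic solvent applied preemergence to sandy loam one day after planting, postemergence at the 1–4 leaf stage, or to ~2.5 cm floodwater over silt loam.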

morningglory [4] = assay: as above; format: in vivo, Ipomoea hederacea; conditions: POSTEMERGENCE; for Plant response rating, Morningglory: 0 to 100 scale
How it was run: as §3

velvetleaf [5] = assay: as above; format: in vivo, Abutilon theophrasti; conditions: POSTEMERGENCE; for Plant response rating, Velvetleaf: 0 to 100 scale
How it was run: as §3

lambsquarters = assay: as above; format: in vivo, Chenopodium album; conditions: POSTEMERGENCE; for Plant response rating Lambsquarters: 0 to 100 scale
How it was run: as §3

crabgrass = assay: as above; format: in vivo, Digitaria sanguinalis; conditions: POSTEMERGENCE; for Plant response rating, Crabgrass: 0 to 100 scale
How it was run: as §3

corn [6] = assay: as above; format: in vivo, Zea mays; conditions: POSTEMERGENCE; for Plant response rating, Corn: 0 to 100 scale
How it was run: as §3

## CCS(=O)(=O)Oc1cc(-c2nn3c(c2Cl)CCCC3)c(F)cc1Cl [Compound 25]
soybean; POSTEMERGENCE, Rate 50 g/ha
  Plant response rating, Soybean: 8
soybean; POSTEMERGENCE, Rate 200 g/ha
  Plant response rating, Soybean: 4
soybean; PREEMERGENCE, Rate 50 g/ha
  Plant response rating, Soybean: 0
soybean; Rate 200 g/ha, PREEMERGENCE
  Plant response rating, Soybean: 0
chickweed; PREEMERGENCE, Rate 50 g/ha
  Plant response rating, Chickweed: 0
chickweed; Rate 200 g/ha, PREEMERGENCE
  Plant response rating, Chickweed: 9
bermudagrass; POSTEMERGENCE, Rate 125 g/ha
  Plant response rating, Bermudagrass: 0
bermudagrass; POSTEMERGENCE, Rate 250 g/ha
  Plant response rating, Bermudagrass: 0
bermudagrass; PREEMERGENCE, Rate 125 g/ha
  Plant response rating, Bermudagrass: 0
bermudagrass; PREEMERGENCE, Rate 250 g/ha
  Plant response rating, Bermudagrass: 0
Large crabgrass; POSTEMERGENCE, Rate 125 g/ha
  Plant response rating, Large Crabgrass: 0
Large crabgrass; POSTEMERGENCE, Rate 250 g/ha
  Plant response rating, Large Crabgrass: 0
Large crabgrass; PREEMERGENCE, Rate 125 g/ha
  Plant response rating, Large Crabgrass: 0
Large crabgrass; PREEMERGENCE, Rate 250 g/ha
  Plant response rating, Large Crabgrass: 0
Corn [1]; POSTEMERGENCE, Rate 50 g/ha
  Plant response rating (0 to 10 scale), Corn: 3
Corn [1]; POSTEMERGENCE, Rate 200 g/ha
  Plant response rating, Corn: 6
Corn [1]; PREEMERGENCE, Rate 50 g/ha
  Plant response rating, Corn: 0
Corn [1]; Rate 200 g/ha, PREEMERGENCE
  Plant response rating, Corn: 0
Morningglory [2]; POSTEMERGENCE, Rate 50 g/ha
  Plant response rating, Morningglory: 8
Morningglory [2]; POSTEMERGENCE, Rate 200 g/ha
  Plant response rating, Morningglory: 10
Morningglory [2]; PREEMERGENCE, Rate 50 g/ha
  Plant response rating, Morningglory: 1
Morningglory [2]; Rate 200 g/ha, PREEMERGENCE
  Plant response rating, Morningglory: 5
Velvetleaf [3]; POSTEMERGENCE, Rate 50 g/ha
  Plant response rating, Velvetleaf: 8
Velvetleaf [3]; POSTEMERGENCE, Rate 200 g/ha
  Plant response rating, Velvetleaf: 10
Velvetleaf [3]; PREEMERGENCE, Rate 50 g/ha
  Plant response rating, Velvetleaf: 1
Velvetleaf [3]; Rate 200 g/ha, PREEMERGENCE
  Plant response rating, Velvetleaf: 10
Sugar beet; POSTEMERGENCE, Rate 50 g/ha
  Plant response rating, Sugar beet: 10
Sugar beet; POSTEMERGENCE, Rate 200 g/ha
  Plant response rating, Sugar beet: 10
Sugar beet; PREEMERGENCE, Rate 50 g/ha
  Plant response rating, Sugar beet: 7
Sugar beet; Rate 200 g/ha, PREEMERGENCE
  Plant response rating, Sugar beet: 10

## C#CC(C)N1C(=O)COc2cc(F)c(-c3nn4c(c3Cl)CCCC4)cc21 (stereo not shown) [Compound 50]
soybean; POSTEMERGENCE, Rate 10 g/ha
  Plant response rating, Soybean: 6
soybean; POSTEMERGENCE, Rate 50 g/ha
  Plant response rating, Soybean: 9
soybean; PREEMERGENCE, Rate 50 g/ha
  Plant response rating, Soybean: 3
chickweed; POSTEMERGENCE, Rate 10 g/ha
  Plant response rating, Chickweed: 9
chickweed; POSTEMERGENCE, Rate 50 g/ha
  Plant response rating, Chickweed: 10
chickweed; PREEMERGENCE, Rate 10 g/ha
  Plant response rating, Chickweed: 0
chickweed; PREEMERGENCE, Rate 50 g/ha
  Plant response rating, Chickweed: 10
wheat; 62 g/ha
  Plant response rating, Wheat: 50
wheat; 250 g/ha
  Plant response rating, Wheat: 60
wheat; Rate 1 g/ha
  Plant response rating (0 to 100), Wheat: 0
wheat; Rate 4 g/ha
  Plant response rating (0 to 100), Wheat: 20
wheat; Rate 16 g/ha
  Plant response rating (0 to 100), Wheat: 30
Morningglory [4]; 62 g/ha
  Plant response rating, Morningglory: 100
Morningglory [4]; 250 g/ha
  Plant response rating, Morningglory: 100
Morningglory [4]; Rate 1 g/ha
  Plant response rating (0 to 100), Morningglory: 50
Morningglory [4]; Rate 4 g/ha
  Plant response rating (0 to 100), Morningglory: 70
Morningglory [4]; Rate 16 g/ha
  Plant response rating (0 to 100), Morningglory: 100
Velvetleaf [5]; 62 g/ha
  Plant response rating, Velvetleaf: 100
Velvetleaf [5]; 250 g/ha
  Plant response rating, Velvetleaf: 100
Velvetleaf [5]; Rate 1 g/ha
  Plant response rating (0 to 100), Velvetleaf: 70
Velvetleaf [5]; Rate 4 g/ha
  Plant response rating (0 to 100), Velvetleaf: 90
Velvetleaf [5]; Rate 16 g/ha
  Plant response rating (0 to 100), Velvetleaf: 100
lambsquarters; 62 g/ha
  Plant response rating Lambsquarters: 100
lambsquarters; 250 g/ha
  Plant response rating Lambsquarters: 100
lambsquarters; Rate 4 g/ha
  Plant response rating (0 to 100), Lambsquarters: 100
lambsquarters; Rate 16 g/ha
  Plant response rating (0 to 100), Lambsquarters: 100
Corn [1]; POSTEMERGENCE, Rate 10 g/ha
  Plant response rating, Corn: 3
Corn [1]; POSTEMERGENCE, Rate 50 g/ha
  Plant response rating, Corn: 4
Corn [1]; PREEMERGENCE, Rate 50 g/ha
  Plant response rating, Corn: 0
Morningglory [2]; POSTEMERGENCE, Rate 10 g/ha
  Plant response rating, Morningglory: 10
Morningglory [2]; POSTEMERGENCE, Rate 50 g/ha
  Plant response rating, Morningglory: 10
Morningglory [2]; PREEMERGENCE, Rate 50 g/ha
  Plant response rating, Morningglory: 2
crabgrass; 62 g/ha
  Plant response rating, Crabgrass: 40
crabgrass; 250 g/ha
  Plant response rating, Crabgrass: 50
crabgrass; Rate 1 g/ha
  Plant response rating (0 to 100), Crabgrass: 10
crabgrass; Rate 4 g/ha
  Plant response rating (0 to 100), Crabgrass: 20
crabgrass; Rate 16 g/ha
  Plant response rating (0 to 100), Crabgrass: 20
Velvetleaf [3]; POSTEMERGENCE, Rate 10 g/ha
  Plant response rating, Velvetleaf: 9
Velvetleaf [3]; POSTEMERGENCE, Rate 50 g/ha
  Plant response rating, Velvetleaf: 10
Velvetleaf [3]; PREEMERGENCE, Rate 50 g/ha
  Plant response rating, Velvetleaf: 0
Sugar beet; POSTEMERGENCE, Rate 10 g/ha
  Plant response rating, Sugar beet: 10
Sugar beet; POSTEMERGENCE, Rate 50 g/ha
  Plant response rating, Sugar beet: 10
Sugar beet; PREEMERGENCE, Rate 50 g/ha
  Plant response rating, Sugar beet: 10
Corn [6]; 62 g/ha
  Plant response rating, Corn: 50
Corn [6]; 250 g/ha
  Plant response rating, Corn: 60
Corn [6]; Rate 1 g/ha
  Plant response rating (0 to 100), Corn: 20
Corn [6]; Rate 4 g/ha
  Plant response rating (0 to 100), Corn: 30
Corn [6]; Rate 16 g/ha
  Plant response rating (0 to 100), Corn: 40

## COCN1C(=O)COc2cc(F)c(-c3nn4c(c3Br)CCCC4)cc21 [Compound 67]
soybean; POSTEMERGENCE, Rate 10 g/ha
  Plant response rating, Soybean: 8
soybean; POSTEMERGENCE, Rate 50 g/ha
  Plant response rating, Soybean: 9
soybean; PREEMERGENCE, Rate 50 g/ha
  Plant response rating, Soybean: 0
chickweed; POSTEMERGENCE, Rate 10 g/ha
  Plant response rating, Chickweed: 7
chickweed; POSTEMERGENCE, Rate 50 g/ha
  Plant response rating, Chickweed: 9
chickweed; PREEMERGENCE, Rate 10 g/ha
  Plant response rating, Chickweed: 0
chickweed; PREEMERGENCE, Rate 50 g/ha
  Plant response rating, Chickweed: 6
wheat; 62 g/ha
  Plant response rating, Wheat: 60
wheat; Rate 1 g/ha
  Plant response rating (0 to 100), Wheat: 10
wheat; Rate 4 g/ha
  Plant response rating (0 to 100), Wheat: 30
wheat; Rate 16 g/ha
  Plant response rating (0 to 100), Wheat: 50
Morningglory [4]; 62 g/ha
  Plant response rating, Morningglory: 100
Morningglory [4]; Rate 1 g/ha
  Plant response rating (0 to 100), Morningglory: 50
Morningglory [4]; Rate 4 g/ha
  Plant response rating (0 to 100), Morningglory: 70
Morningglory [4]; Rate 16 g/ha
  Plant response rating (0 to 100), Morningglory: 100
Velvetleaf [5]; 62 g/ha
  Plant response rating, Velvetleaf: 100
Velvetleaf [5]; Rate 1 g/ha
  Plant response rating (0 to 100), Velvetleaf: 70
Velvetleaf [5]; Rate 4 g/ha
  Plant response rating (0 to 100), Velvetleaf: 85
Velvetleaf [5]; Rate 16 g/ha
  Plant response rating (0 to 100), Velvetleaf: 100
lambsquarters; 62 g/ha
  Plant response rating Lambsquarters: 100
lambsquarters; Rate 1 g/ha
  Plant response rating (0 to 100), Lambsquarters: 100
lambsquarters; Rate 4 g/ha
  Plant response rating (0 to 100), Lambsquarters: 100
lambsquarters; Rate 16 g/ha
  Plant response rating (0 to 100), Lambsquarters: 100
Corn [1]; POSTEMERGENCE, Rate 10 g/ha
  Plant response rating, Corn: 3
Corn [1]; POSTEMERGENCE, Rate 50 g/ha
  Plant response rating, Corn: 4
Corn [1]; PREEMERGENCE, Rate 50 g/ha
  Plant response rating, Corn: 2
Morningglory [2]; POSTEMERGENCE, Rate 10 g/ha
  Plant response rating, Morningglory: 10
Morningglory [2]; POSTEMERGENCE, Rate 50 g/ha
  Plant response rating, Morningglory: 10
Morningglory [2]; PREEMERGENCE, Rate 50 g/ha
  Plant response rating, Morningglory: 2
crabgrass; 62 g/ha
  Plant response rating, Crabgrass: 40
crabgrass; Rate 1 g/ha
  Plant response rating (0 to 100), Crabgrass: 10
crabgrass; Rate 4 g/ha
  Plant response rating (0 to 100), Crabgrass: 20
crabgrass; Rate 16 g/ha
  Plant response rating (0 to 100), Crabgrass: 30
Velvetleaf [3]; POSTEMERGENCE, Rate 10 g/ha
  Plant response rating, Velvetleaf: 9
Velvetleaf [3]; POSTEMERGENCE, Rate 50 g/ha
  Plant response rating, Velvetleaf: 10
Velvetleaf [3]; PREEMERGENCE, Rate 50 g/ha
  Plant response rating, Velvetleaf: 1
Sugar beet; POSTEMERGENCE, Rate 10 g/ha
  Plant response rating, Sugar beet: 10
Sugar beet; POSTEMERGENCE, Rate 50 g/ha
  Plant response rating, Sugar beet: 10
Sugar beet; PREEMERGENCE, Rate 50 g/ha
  Plant response rating, Sugar beet: 9
Corn [6]; 62 g/ha
  Plant response rating, Corn: 40
Corn [6]; Rate 1 g/ha
  Plant response rating (0 to 100), Corn: 10
Corn [6]; Rate 4 g/ha
  Plant response rating (0 to 100), Corn: 20
Corn [6]; Rate 16 g/ha
  Plant response rating (0 to 100), Corn: 30
